Experimental data reported in US20080267882A1, “Imaging compounds, methods of making imaging compounds, methods of imaging, therapeutic compounds, methods of making therapeutic compounds, and methods of therapy” (Stanford University, priority 2007, published 2008).
Like-named read-outs stand apart in the source and are kept apart here.

Experiments:
U87MG cells = test: cell adhesion assay on vitronectin coated plates; type: cell-based, human; conditions: for anti-adhesion multivalent enhancement ratio (MVE): IC50 of RGD monomer divided by IC50 of RGD multimer
Protocol: Ninety-six well plates were coated with 2 μg/mL of fibronectin or vitronectin (Sigma-Aldrich) in PBS at 4° C. overnight and treated with 2% bovine serum albumin (BSA) for 1 h at 37° C. U87MG cells (human glioblastoma, ATCC; 2×10^5 cells/mL) with various concentrations of RGD multimers (50 nM, 200 nM, 800 nM) in 100 μL serum-free Dulbecco's modified Eagle's medium (DMEM) containing 0.1% BSA were incubated for 20 min at 37° C. The resulting mixture was added to the plates and incubated for 1 h at 37° C. Plates treated with BSA only were used as negative control. After removal of the medium by aspiration, 0.04% crystal violet solution was added and incubated for 10 min at room temperature. The wells were washed three times with PBS and 20 μL Triton X-100 were added for permeabilization. Distilled water (80 μL) was then added and the number of adherent cells was assessed with a microplate reader (Tecan; measurement wavelength: 550 nm; reference wavelength: 630 nm).

integrin αvβ3 = biological target: T1, integrin αvβ3 (Homo sapiens, UniProt P05106+P06756); test: competitive cell binding assay using ^125I-echistatin on U87MG cells; conditions: for receptor binding multivalent enhancement ratio (MVE): IC50 of RGD monomer divided by IC50 of RGD multimer
T1 construct: evaluated using U87MG cells (integrin αvβ3-positive); endogenous in cells; host or cells: U87MG human glioblastoma cells (ATCC)
Protocol: Experiments were performed on U87MG human glioblastoma cells with triplicate samples as previously reported.
In vitro integrin αvβ3-binding affinities and specificities of RGD4, PRGD4 and FPRGD4 were assessed via displacement cell binding assays using ^125I-echistatin as the integrin αvβ3-specific radioligand. Experiments were performed on U87MG human glioblastoma cells by the method previously described (J Nucl Med. 2005;46:1707-1718 J Nucl Med. 2006;47:1172-1180, which is incorporated herein by reference for the corresponding discussion). […] Experiments were performed with triplicate samples.
Experiments were performed with triplicate samples.
In vitro integrin-binding affinity and specificity of RGD multimers and DOTA-RGD multimers were assessed via competitive cell binding assays using ^125I-echistatin as the integrin αvβ3-specific radioligand (J Nucl Med. 2005;46:1707-1718, which is incorporated herein by reference for the corresponding discussion). […] Experiments were performed with triplicate samples.

[1] = Example 4, n=3, read-out: IC50 (inhibition of ^125I-echistatin binding to U87MG cells)

Structure (SMILES) | anti-adhesion multivalent enhancement ratio (MVE) (U87MG cells) | IC50 (U87MG cells; vitronectin coated plates, n=4, read-out: calculated IC50 (inhibition of U87MG cell adhesion)) | IC50 (integrin αvβ3; Example 2, n=3, read-out: IC50 (inhibition of ^125I-echistatin binding to U87MG cells)) | fold higher integrin αvβ3 avidity than the RGD dimer (integrin αvβ3; Example 4) | IC50 (integrin αvβ3; [1]) | receptor binding multivalent enhancement ratio (MVE) (integrin αvβ3) | times as effective as the RGD monomer (U87MG cells; vitronectin coated plates) | further fold increase of integrin avidity over RGD tetramer (integrin αvβ3; Example 4) | IC50 (integrin αvβ3; Example 4, introduction, read-out: IC50 value (αvβ3 integrin binding))
N=C(N)NCCC[C@@H]1NC(=O)[C@H](CCCCNC(=O)CC[C@H](NC(=O)CC[C@H](N)C(=O)N[C@@H](CCC(=O)NCCCC[C@@H]2NC(=O)[C@@H](Cc3ccc(O)cc3)NC(=O)[C@H](CC(=O)O)NC(=O)CNC(=O)[C@H](CCCNC(=N)N)NC2=O)C(=O)NCCCC[C@@H]2NC(=O)[C@@H](Cc3ccc(O)cc3)NC(=O)[C@H](CC(=O)O)NC(=O)CNC(=O)[C@H](CCCNC(=N)N)NC2=O)C(=O)NCCCC[C@@H]2NC(=O)[C@@H](Cc3ccc(O)cc3)NC(=O)[C@H](CC(=O)O)NC(=O)CNC(=O)[C@H](CCCNC(=N)N)NC2=O)NC(=O)[C@@H](Cc2ccc(O)cc2)NC(=O)[C@H](CC(=O)O)NC(=O)CNC1=O [RGD4, E{E[c(RGDyK)]2}2] | 8.4 | 320 nM | 39.1 ± 5.5 nM | about 3 fold | 35 nM | 5.9 | – | – | –
N=C(N)NCCC[C@@H]1NC(=O)[C@H](CCCCNC(=O)CC[C@H](NC(=O)CC[C@H](NC(=O)CC[C@H](N)C(=O)N[C@@H](CCC(=O)N[C@@H](CCC(=O)NCCCC[C@@H]2NC(=O)[C@@H](Cc3ccc(O)cc3)NC(=O)[C@H](CC(=O)O)NC(=O)CNC(=O)[C@H](CCCNC(=N)N)NC2=O)C(=O)NCCCC[C@@H]2NC(=O)[C@@H](Cc3ccc(O)cc3)NC(=O)[C@H](CC(=O)O)NC(=O)CNC(=O)[C@H](CCCNC(=N)N)NC2=O)C(=O)N[C@@H](CCC(=O)NCCCC[C@@H]2NC(=O)[C@@H](Cc3ccc(O)cc3)NC(=O)[C@H](CC(=O)O)NC(=O)CNC(=O)[C@H](CCCNC(=N)N)NC2=O)C(=O)NCCCC[C@@H]2NC(=O)[C@@H](Cc3ccc(O)cc3)NC(=O)[C@H](CC(=O)O)NC(=O)CNC(=O)[C@H](CCCNC(=N)N)NC2=O)C(=O)N[C@@H](CCC(=O)NCCCC[C@@H]2NC(=O)[C@@H](Cc3ccc(O)cc3)NC(=O)[C@H](CC(=O)O)NC(=O)CNC(=O)[C@H](CCCNC(=N)N)NC2=O)C(=O)NCCCC[C@@H]2NC(=O)[C@@H](Cc3ccc(O)cc3)NC(=O)[C@H](CC(=O)O)NC(=O)CNC(=O)[C@H](CCCNC(=N)N)NC2=O)C(=O)NCCCC[C@@H]2NC(=O)[C@@H](Cc3ccc(O)cc3)NC(=O)[C@H](CC(=O)O)NC(=O)CNC(=O)[C@H](CCCNC(=N)N)NC2=O)NC(=O)[C@@H](Cc2ccc(O)cc2)NC(=O)[C@H](CC(=O)O)NC(=O)CNC1=O [RGD octamer, E(E{E[c(RGDyK)]2}2)2] | 25.6 | – | – | – | 10 nM | 20.3 | 27 times | 3 fold | 10 nM
